From patent EP2123641A1, “CRYSTAL, AMORPHOUS FORM AND SALT OF METHYL N-Ý3-(6,7-DIMETHOXY- 2-METHYLAMINOQUINAZOLIN-4-YL)PHENYL¨[…] ACID” (priority 2007, dated 2008)
Read-outs that look alike come from different tables or passages of the source.

Tests used:
Settings in all cases: human, 2880 min
CYP3A4 = tested on: CYP3A4
Description: (§1) Cryopreserved human hepatocytes (XenoTeek) were rapidly thawed at 37°C, and viable cells were obtained using Hepatocytes Isolation Kit (Nosan Corporation). After cells prepared were diluted with ice cold William's Medium E (10% FBS, +PSG) to give a concentration of 5 x 10^5 viable cells/mL, the cells were seeded onto a 48-well collagen-coated plate (BD Biosciences) at a concentration of 1 x 10^5 cells/cm^2 and cultured at 37°C in 5% CO2 for 24 hours. Then, the medium was replaced with Hepato-STIM (registered trade mark: BD Biosciences) (+EGF, PSG, -FBS), and the cells were further cultured at 37°C in 5% CO2 for 24 hours. […] The culture medium containing test compound, β-NF or Rif was replaced every 24 hours. Test compound, β-NF and Rif were each dissolved in dimethyl sulfoxide (DMSO: Wako Pure Chemical Industries, Ltd.), and culture medium containing test compound (final concentrations; 1, 3 and 10µM), β-NF (final concentration; 10µM) or Rif (final concentration; 10µM) was prepared by adding them to Hepato-STIM(+EGF, PSG, -FBS), respectively. […] The levels of mRNA for CYP1A1 and GAPDH were quantified using SYBR Green PCR Core Reagents Kit (Applied Biosystems), and those for CYP1A2 and that of CYP3A4 were measured using Taqman PCR Core Reagents Kit (Applied Biosystems) and ABI Prism 7900 Sequence Detection System (Applied Biosystems).
(§2) The ability of a test compound to induce CYP1A1 was calculated as follows: Ability of a test compound to induce CYP1A1 (%) = {[(amount of mRNA of CYP1A1 in test compound treated cells)/(amount of mRNA of GAPDH in test compound treated cells)]/[(amount of mRNA of CYP1A1 in control cells)/(amount of mRNA of GAPDH in control cells)] - 1}/{[(amount of mRNA of CYP1A1 in positive control treated cells)/(amount of mRNA of GAPDH in positive control treated cells)]/[(amount of mRNA of CYP1A1 in control cells)/(amount of mRNA of GAPDH in control cells)] -1} x 100 The ability to induce CYP1A2 or CYP3A4 was calculated in the same manner described above.

CYP1A1 = tested on: CYP1A1
Description: Cryopreserved human hepatocytes (XenoTeek) were rapidly thawed at 37°C, and viable cells were obtained using Hepatocytes Isolation Kit (Nosan Corporation). […] Then, the medium was replaced with Hepato-STIM (registered trade mark: BD Biosciences) (+EGF, PSG, -FBS), and the cells were further cultured at 37°C in 5% CO2 for 24 hours. […] The culture medium containing test compound, β-NF or Rif was replaced every 24 hours. […] The levels of mRNA for CYP1A1 and GAPDH were quantified using SYBR Green PCR Core Reagents Kit (Applied Biosystems), and those for CYP1A2 and that of CYP3A4 were measured using Taqman PCR Core Reagents Kit (Applied Biosystems) and ABI Prism 7900 Sequence Detection System (Applied Biosystems).

CYP1A2 = tested on: CYP1A2
Description: as §1, §2

Induction Ability compared to positive control (%) CYP3A4 (CYP3A4; 1 uM)	Induction Ability compared to positive control (%) CYP3A4 (CYP3A4; 3 uM)	Induction Ability compared to positive control (%) CYP3A4 (CYP3A4; 10 uM)	Induction Ability compared to positive control (%) CYP1A1 (CYP1A1; 1 uM)	Induction Ability compared to positive control (%) CYP1A1 (CYP1A1; 3 uM)	Induction Ability compared to positive control (%) CYP1A1 (CYP1A1; 10 uM)	Induction Ability compared to positive control (%) CYP1A2 (CYP1A2; 1 uM)	Induction Ability compared to positive control (%) CYP1A2 (CYP1A2; 3 uM)	Induction Ability compared to positive control (%) CYP1A2 (CYP1A2; 10 uM)	Structure (SMILES)
-2.4%	-3.4%	-4.0%	0.1%	0.6%	4.6%	-0.1%	-0.7%	2.5%	CNc1nc(-c2cccc(NC(=O)c3ccc(C(=O)OC)cc3)c2)c2cc(OC)c(OC)cc2n1 [Example 1, methyl N-[3-(6,7-dimethoxy-2-methylaminoquinazolin-4-yl)phenyl]terephthalamic acid]
					100.0%				O=c1cc(-c2ccccc2)oc2ccc3ccccc3c12 [β-naphthoflavone, reference compound]
